System: MV-4-11 cells
Experiment: Gene expression microarray analysis (Affymetrix PrimeView) and GSEA
Format: cell-based, human
Set-up: RFU PODN (11730768_x_at) / Fold change /veh PODN (11730768_x_at) / RFU LINC00158 (11744669_a_at) / Fold change /veh LINC00158 (11744669_a_at) / RFU DUSP10 (11751237_a_at) / Fold change /veh DUSP10 (11751237_a_at) / RFU ID3 (11757404_x_at) / Fold change /veh ID3 (11757404_x_at) / RFU PLEKHG5 (11737974_s_at) / Fold change /veh PLEKHG5 (11737974_s_at) / RFU LRRC4B (11730491_at) / Fold change /veh LRRC4B (11730491_at) / RFU GIMAP4 (11747438_a_at) / Fold change /veh GIMAP4 (11747438_a_at) / RFU KRT8 (11758183_x_at) / Fold change /veh KRT8 (11758183_x_at) / RFU CNN1 (11734310_a_at) / Fold change /veh CNN1 (11734310_a_at) / RFU VPS37D (11726825_at) / Fold change /veh VPS37D (11726825_at) / RFU C10orf10 (11716522_x_at) / Fold change /veh C10orf10 (11716522_x_at) / RFU KIR2DL2 /// KIR2DL4 /// KIR2DL5A /// KIR2DL5B /// KIR2DS1 /// KIR2DS2 /// KIR2DS3 /// KIR2DS4 /// KIR3DL3 /// KIR3DL3 /// KIR3DS1 (11738374_at) / Fold change /veh KIR2DL2 /// KIR2DL4 /// KIR2DL5A /// KIR2DL5B /// KIR2DS1 /// KIR2DS2 /// KIR2DS3 /// KIR2DS4 /// KIR3DL3 /// KIR3DL3 /// KIR3DS1 (11738374_at) / RFU C1QL1 (11718748_at) / Fold change /veh C1QL1 (11718748_at) / RFU TMPRSS4 (11747572_a_at) / Fold change /veh TMPRSS4 (11747572_a_at) / RFU HAMP (11756126_x_at) / Fold change /veh HAMP (11756126_x_at) / RFU RNFT2 (11725882_a_at) / Fold change /veh RNFT2 (11725882_a_at) / RFU NR4A2 (11747474_a_at) / Fold change /veh NR4A2 (11747474_a_at) / RFU ABCC12 (11746883_a_at) / Fold change /veh ABCC12 (11746883_a_at) / RFU TMEM136 (11760407_x_at) / Fold change /veh TMEM136 (11760407_x_at) / RFU CLDN22 /// WWC2 (11732394_at) / Fold change /veh CLDN22 /// WWC2 (11732394_at) / RFU HLA-DPB1 (11760878_x_at) / Fold change /veh HLA-DPB1 (11760878_x_at) / RFU SPINT1 (11716480_a_at) / Fold change /veh SPINT1 (11716480_a_at) / RFU GAP43 (11754022_s_at) / Fold change /veh GAP43 (11754022_s_at) / RFU A4GNT (11735810_at) / Fold change /veh A4GNT (11735810_at) / RFU PRB3 (11715151_x_at) / Fold change /veh PRB3 (11715151_x_at) / RFU TUBB4B (11761932_at) / Fold change /veh TUBB4B (11761932_at) / RFU CAPN14 (11732068_a_at) / Fold change /veh CAPN14 (11732068_a_at) / RFU TMCC2 (11721928_a_at) / Fold change /veh TMCC2 (11721928_a_at) / RFU IRGQ (11745062_a_at) / Fold change /veh IRGQ (11745062_a_at) / RFU FAM174B (11720279_a_at) / Fold change /veh FAM174B (11720279_a_at) / RFU TMPRSS4 (11748680_a_at) / Fold change /veh TMPRSS4 (11748680_a_at) / RFU FAM212B (11763350_a_at) / Fold change /veh FAM212B (11763350_a_at) / RFU PLEKHG5 (11743358_a_at) / Fold change /veh PLEKHG5 (11743358_a_at) / RFU ZSCAN30 (11745921_a_at) / Fold change /veh ZSCAN30 (11745921_a_at) / RFU CMKLR1 (11741424_a_at) / Fold change /veh CMKLR1 (11741424_a_at) / RFU LOC101060620 /// MAPK8IP1 (11723275_at) / Fold change /veh LOC101060620 /// MAPK8IP1 (11723275_at) / RFU SPTSSB (11747773_x_at) / Fold change /veh SPTSSB (11747773_x_at) / RFU PRSS12 (11739890_at) / Fold change /veh PRSS12 (11739890_at) / RFU BIN1 (11741810_x_at) / Fold change /veh BIN1 (11741810_x_at) / RFU WNT11 (11732464_a_at) / Fold change /veh WNT11 (11732464_a_at) / RFU C10orf10 (11716521_a_at) / Fold change /veh C10orf10 (11716521_a_at) / RFU C5orf56 (11738089_at) / Fold change /veh C5orf56 (11738089_at) / RFU CYB561 (11721691_x_at) / Fold change /veh CYB561 (11721691_x_at) / RFU ANKRD19P (11752326_a_at) / Fold change /veh ANKRD19P (11752326_a_at) / RFU OR2T12 /// OR2T33 /// OR2T8 (11738714_s_at) / Fold change /veh OR2T12 /// OR2T33 /// OR2T8 (11738714_s_at) / RFU VCAN (11748164_a_at) / Fold change /veh VCAN (11748164_a_at) / RFU JSRP1 (11732532_at) / Fold change /veh JSRP1 (11732532_at) / RFU KRTAP10-11 (11738290_x_at) / Fold change /veh KRTAP10-11 (11738290_x_at) / RFU MYO3A (11730013_a_at) / Fold change /veh MYO3A (11730013_a_at) / RFU EBF3 (11725865_a_at) / Fold change /veh EBF3 (11725865_a_at) / RFU CAMK2N1 (11719241_x_at) / Fold change /veh CAMK2N1 (11719241_x_at) / RFU C5orf56 (11738088_a_at) / Fold change /veh C5orf56 (11738088_a_at) / RFU OLFML3 (11715873_a_at) / Fold change /veh OLFML3 (11715873_a_at) / RFU LOC100653217 /// NTM (11731650_a_at) / Fold change /veh LOC100653217 /// NTM (11731650_a_at) / RFU MAPK11 (11762145_a_at) / Fold change /veh MAPK11 (11762145_a_at) / RFU FIZ1 (11724087_x_at) / Fold change /veh FIZ1 (11724087_x_at) / RFU OASL (11726364_x_at) / Fold change /veh OASL (11726364_x_at) / RFU SOX15 (11748057_x_at) / Fold change /veh SOX15 (11748057_x_at) / RFU CD79A (11719716_a_at) / Fold change /veh CD79A (11719716_a_at) / RFU HIST1H1D (11736915_at) / Fold change /veh HIST1H1D (11736915_at) / RFU CASKIN2 (11723855_a_at) / Fold change /veh CASKIN2 (11723855_a_at) / RFU LOC730098 (11760151_x_at) / Fold change /veh LOC730098 (11760151_x_at) / RFU OR4N2 (11742367_at) / Fold change /veh OR4N2 (11742367_at) / RFU PRRT2 (11749266_a_at) / Fold change /veh PRRT2 (11749266_a_at) / RFU SNX32 (11753110_a_at) / Fold change /veh SNX32 (11753110_a_at) / RFU CDHR5 (11726645_a_at) / Fold change /veh CDHR5 (11726645_a_at) / RFU RCAN1 (11760418_a_at) / Fold change /veh RCAN1 (11760418_a_at) / RFU FAM167A (11723789_a_at) / Fold change /veh FAM167A (11723789_a_at) / RFU FAM26E (11764081_at) / Fold change /veh FAM26E (11764081_at) / RFU ISYNA1 (11749810_s_at) / Fold change /veh ISYNA1 (11749810_s_at) / RFU ACY1 (11761880_at) / Fold change /veh ACY1 (11761880_at) / RFU 11764098_at / Fold change /veh 11764098_at / RFU SAMD14 (11745864_x_at) / Fold change /veh SAMD14 (11745864_x_at) / RFU NPB (11741838_a_at) / Fold change /veh NPB (11741838_a_at) / RFU TMPRSS6 (11731388_a_at) / Fold change /veh TMPRSS6 (11731388_a_at) / RFU KRTAP10-2 (11738614_at) / Fold change /veh KRTAP10-2 (11738614_at) / RFU ARHGAP8 /// PRR5-ARHGAP8 (11727945_x_at) / Fold change /veh ARHGAP8 /// PRR5-ARHGAP8 (11727945_x_at) / RFU KRTAP5-7 /// NADSYN1 (11734609_at) / Fold change /veh KRTAP5-7 /// NADSYN1 (11734609_at) / RFU RASL12 (11751679_a_at) / Fold change /veh RASL12 (11751679_a_at) / RFU CDKN2B (11736163_a_at) / Fold change /veh CDKN2B (11736163_a_at) / RFU PRF1 (11729649_at) / Fold change /veh PRF1 (11729649_at) / RFU, ZNF638 /// ZNF638-IT1 / Fold change vs veh, ZNF638 /// ZNF638-IT1 / RFU, PANK3 / Fold change vs veh, PANK3 / RFU, SH3YL1 / Fold change vs veh, SH3YL1 / RFU, ZEB2 / Fold change vs veh, ZEB2 / RFU, NRIP1 / Fold change vs veh, NRIP1 / RFU, PTTG1IP / Fold change vs veh, PTTG1IP / RFU, CAPN2 / Fold change vs veh, CAPN2 / RFU, MED14 / Fold change vs veh, MED14 / RFU, SNORA58 / Fold change vs veh, SNORA58 / RFU, C1orf63 / Fold change vs veh, C1orf63 / RFU, LRRFIP1 / Fold change vs veh, LRRFIP1 / RFU, NDUFAF7 / Fold change vs veh, NDUFAF7 / RFU, SLC12A2 / Fold change vs veh, SLC12A2 / RFU, IBTK / Fold change vs veh, IBTK / RFU, ESF1 / Fold change vs veh, ESF1 / Fold change vs veh, TMEM50B / RFU, TAOK1 / Fold change vs veh, TAOK1 / RFU, ACBD3 / Fold change vs veh, ACBD3 / RFU, TMA16 / Fold change vs veh, TMA16 / RFU, RWDD3 / Fold change vs veh, RWDD3 / RFU, BCAT1 / Fold change vs veh, BCAT1 / RFU, EDEM3 / Fold change vs veh, EDEM3 / RFU, TMEM33 / Fold change vs veh, TMEM33 / RFU, WDR75 / Fold change vs veh, WDR75 / RFU, AHCTF1 / Fold change vs veh, AHCTF1 / RFU, TFRC / Fold change vs veh, TFRC / RFU, ZDHHC17 / Fold change vs veh, ZDHHC17 / RFU, NOM1 / Fold change vs veh, NOM1 / RFU, ARL8B / Fold change vs veh, ARL8B / RFU, ZBTB11 / Fold change vs veh, ZBTB11 / RFU, TAMM41 / Fold change vs veh, TAMM41 / RFU, KIAA1704 /// LOC100996395 / Fold change vs veh, KIAA1704 /// LOC100996395 / RFU, ING1 / Fold change vs veh, ING1 / RFU, TRMT61B / Fold change vs veh, TRMT61B / RFU, FUBP3 / Fold change vs veh, FUBP3 / RFU, TP53 / Fold change vs veh, TP53 / RFU, TNKS2 / Fold change vs veh, TNKS2 / RFU, ZFP14 / Fold change vs veh, ZFP14 / RFU, ACTR2 / Fold change vs veh, ACTR2 / RFU, PPP3R1 / Fold change vs veh, PPP3R1 / RFU, PIK3R1 / Fold change vs veh, PIK3R1 / RFU, HNRNPA1 / Fold change vs veh, HNRNPA1 / RFU, RNF170 / Fold change vs veh, RNF170 / RFU, ZNF28 / Fold change vs veh, ZNF28 / RFU, RNGTT / Fold change vs veh, RNGTT / RFU, OGT / Fold change vs veh, OGT / RFU, BRD1 / Fold change vs veh, BRD1 / RFU, MARS / Fold change vs veh, MARS / RFU, ZNF655 / Fold change vs veh, ZNF655 / RFU, FAHD1 / Fold change vs veh, FAHD1 / RFU, BDP1 / Fold change vs veh, BDP1 / RFU, LRRCC1 / Fold change vs veh, LRRCC1 / RFU, ARID1A / Fold change vs veh, ARID1A / RFU, ZNF146 / Fold change vs veh, ZNF146 / RFU, ZNF330 / Fold change vs veh, ZNF330 / RFU, GPN3 / Fold change vs veh, GPN3 / RFU, C9orf123 / Fold change vs veh, C9orf123 / RFU, N4BP2L2 / Fold change vs veh, N4BP2L2 / RFU, ARFIP1 / Fold change vs veh, ARFIP1 / RFU, FAM179B / Fold change vs veh, FAM179B / RFU, BCL10 / Fold change vs veh, BCL10 / RFU, UHRF1BP1L / Fold change vs veh, UHRF1BP1L / RFU, BET1 / Fold change vs veh, BET1 / RFU, CNOT2 / Fold change vs veh, CNOT2 / RFU, ZNF268 / Fold change vs veh, ZNF268 / Fold change vs veh, ZNF507 / RFU, DGCR2 / Fold change vs veh, DGCR2 / RFU, WDSUB1 / Fold change vs veh, WDSUB1 / Fold change vs veh, HSP90B1 /// MIR3652 / RFU, ADSS / Fold change vs veh, ADSS / RFU, GK / Fold change vs veh, GK / RFU, ZNF148 / Fold change vs veh, ZNF148 / RFU, TAF9 / Fold change vs veh, TAF9 / RFU, SLC1A5 / Fold change vs veh, SLC1A5 / RFU, SLMO2 / Fold change vs veh, SLMO2 / RFU, ABCC4 / Fold change vs veh, ABCC4 / RFU, LOC101060439 /// RAP1B / Fold change vs veh, LOC101060439 /// RAP1B / RFU, RFX7 / Fold change vs veh, RFX7 / RFU, GTPBP10 / Fold change vs veh, GTPBP10 / RFU, CNEP1R1 / Fold change vs veh, CNEP1R1 / RFU, BIVM-ERCC5 /// ERCC5 / Fold change vs veh, BIVM-ERCC5 /// ERCC5 / RFU, ILF3 / Fold change vs veh, ILF3 / RFU 11762660_at / Fold change /veh 11762660_at / RFU VCAN (11757783_s_at) / Fold change /veh VCAN (11757783_s_at) / RFU DDX43 (11728927_at) / Fold change /veh DDX43 (11728927_at) / RFU KRT8 (11758188_x_at) / Fold change /veh KRT8 (11758188_x_at) / RFU NKD1 (11759106_at) / Fold change /veh NKD1 (11759106_at) / RFU SRD5A1 (11742802_a_at) / Fold change /veh SRD5A1 (11742802_a_at) / RFU TPSAB1 /// TPSB2 (11721975_s_at) / Fold change /veh TPSAB1 /// TPSB2 (11721975_s_at) / RFU GSTM3 (11746129_a_at) / Fold change /veh GSTM3 (11746129_a_at) / RFU IL23R (11737362_x_at) / Fold change /veh IL23R (11737362_x_at) / RFU TMEM51 (11727254_a_at) / Fold change /veh TMEM51 (11727254_a_at) / RFU PIWIL2 (11732686_x_at) / Fold change /veh PIWIL2 (11732686_x_at) / RFU ORM1 (11744905_x_at) / Fold change /veh ORM1 (11744905_x_at) / RFU CCDC152 (11743942_at) / Fold change /veh CCDC152 (11743942_at) / RFU ECM1 (11717891_a_at) / Fold change /veh ECM1 (11717891_a_at) / RFU IL23R (11748794_a_at) / Fold change /veh IL23R (11748794_a_at) / RFU TNFAIP8L3 (11732012_x_at) / Fold change /veh TNFAIP8L3 (11732012_x_at) / RFU MBOAT4 (11741988_at) / Fold change /veh MBOAT4 (11741988_at) / RFU 11764193_at / Fold change /veh 11764193_at / RFU TMEM53 (11763286_at) / Fold change /veh TMEM53 (11763286_at) / RFU MAGEB2 (11727129_at) / Fold change /veh MAGEB2 (11727129_at) / RFU TMEM200A (11744735_a_at) / Fold change /veh TMEM200A (11744735_a_at) / RFU CCDC152 (11751479_a_at) / Fold change /veh CCDC152 (11751479_a_at) / RFU FAM211A (11726209_a_at) / Fold change /veh FAM211A (11726209_a_at) / RFU RGS16 (11746705_a_at) / Fold change /veh RGS16 (11746705_a_at) / RFU VCAN (11755009_s_at) / Fold change /veh VCAN (11755009_s_at) / RFU RHOB (11743442_s_at) / Fold change /veh RHOB (11743442_s_at) / RFU RGS16 (11720943_a_at) / Fold change /veh RGS16 (11720943_a_at) / RFU RGS16 (11720944_at) / Fold change /veh RGS16 (11720944_at) / RFU, VPS4B / Fold change vs veh, VPS4B / RFU, CREB1 / Fold change vs veh, CREB1 / RFU, DNAJC13 / Fold change vs veh, DNAJC13 / RFU, GNAQ / Fold change vs veh, GNAQ / RFU, CDK5R1 / Fold change vs veh, CDK5R1 / RFU, ZRANB3 / Fold change vs veh, ZRANB3 / RFU, CUL4A / Fold change vs veh, CUL4A / RFU, CCNY / Fold change vs veh, CCNY / RFU, UFL1 / Fold change vs veh, UFL1 / RFU, COG3 / Fold change vs veh, COG3 / RFU, DIAPH2 / Fold change vs veh, DIAPH2 / RFU, SKA2 / Fold change vs veh, SKA2 / RFU, AFF3 / Fold change vs veh, AFF3 / RFU, LMF1 / Fold change vs veh, LMF1 / RFU, IPO11 / Fold change vs veh, IPO11 / RFU, DFFB / Fold change vs veh, DFFB / RFU, FOXP1 / Fold change vs veh, FOXP1 / RFU, CARD8 / Fold change vs veh, CARD8 / RFU, STRN3 / Fold change vs veh, STRN3 / RFU, ADK / Fold change vs veh, ADK / RFU, RASSF2 / Fold change vs veh, RASSF2 / RFU, WIPF1 / Fold change vs veh, WIPF1 / RFU, LARP1B / Fold change vs veh, LARP1B / RFU, RASA1 / Fold change vs veh, RASA1 / RFU, RB1 / Fold change vs veh, RB1 / RFU, PPFIA1 / Fold change vs veh, PPFIA1 / RFU, MAT2A / Fold change vs veh, MAT2A / RFU, CCT5 / Fold change vs veh, CCT5 / RFU, WDR92 / Fold change vs veh, WDR92 / RFU, CUX1 / Fold change vs veh, CUX1 / RFU, TTC7A / Fold change vs veh, TTC7A / RFU, TMEM135 / Fold change vs veh, TMEM135 / RFU, DEPTOR / Fold change vs veh, DEPTOR / RFU, CPM / Fold change vs veh, CPM / RFU, DNAJB6 / Fold change vs veh, DNAJB6 / RFU, CACNA2D3 / Fold change vs veh, CACNA2D3 / RFU, DTX4 / Fold change vs veh, DTX4 / RFU, TFCP2 / Fold change vs veh, TFCP2 / RFU, GMCL1 /// GMCL1P1 / Fold change vs veh, GMCL1 /// GMCL1P1 / RFU, AEBP2 / Fold change vs veh, AEBP2 / RFU, SNHG1 /// SNORD22 /// SNORD25 /// SNORD26 /// SNORD27 /// SNORD28 /// SNORD29 /// SNORD31 / Fold change vs veh, SNHG1 /// SNORD22 /// SNORD25 /// SNORD26 /// SNORD27 /// SNORD28 /// SNORD29 /// SNORD31 / Fold change (Aza/veh), C12orf56 (ProbeSet 11735607_a_at) / Fold change (ACY-1035/veh), C12orf56 (ProbeSet 11735607_a_at) / Fold change (Aza/veh), FGFR1OP (ProbeSet 11751329_s_at) / Fold change (ACY-1035/veh), FGFR1OP (ProbeSet 11751329_s_at) / Fold change (Aza/veh), VPS36 (ProbeSet 11739960_a_at) / Fold change (ACY-1035/veh), VPS36 (ProbeSet 11739960_a_at) / RFU SYPL1 (11715823_x_at) / Fold change /veh SYPL1 (11715823_x_at) / RFU IGFBP7 (11715501_s_at) / Fold change /veh IGFBP7 (11715501_s_at) / RFU REEP3 (11722064_at) / Fold change /veh REEP3 (11722064_at) / RFU IGLL1 (11728026_x_at) / Fold change /veh IGLL1 (11728026_x_at): dose or concentration left out as unconfirmed
Conditions: ProbeSet 11743362_s_at; LIST B

Nc1ncn([C@@H]2O[C@H](CO)[C@@H](O)[C@H]2O)c(=O)n1 [azacitidine]
RFU, ADSS: 624.28 RFU

— article PMC5218480 (PLoS ONE, 2017)
